For 17 compounds, IC50 results are on record in patent US9944646B2, “Bicyclic azaheterocyclobenzylamines as PI3K inhibitors” (Incyte Corporation, priority 2012, dated 2018).

Usually IC50 stands for the concentration that inhibits the measured activity by half. The low end stands for greater potency in that assay, the high end for weaker potency in that assay.

Where a name gives a salt, the structure may show the parent alone.

The assay addresses PI3Kδ (Homo sapiens (Human), UniProt O00329). Briefly: PI3K Enzyme Assay (Example A2), [γ-33P]ATP filter plate. In kind it is biochemical. As to the method:
Example A2: PI3K Enzyme Assay
Lipid kinase substrate, phosphoinositol-4,5-bisphosphate (PIP2), are purchased from Echelon Biosciences (Salt Lake City, Utah). PI3K isoforms α, β, δ and γ are purchased from Millipore (Bedford, Mass.). ATP, MgCl2, DTT, EDTA, MOPS and CHAPS are purchased from Sigma-Aldrich (St. Louis, Mo.).
The kinase reaction are conducted in clear-bottom 96-well plate from Thermo Fisher Scientific in a final volume of 24 μL. Inhibitors are first diluted serially in DMSO and added to the plate wells before the addition of other reaction components. The final concentration of DMSO in the assay is 0.5%. The PI3K assays are carried out at room temperature in 20 mM MOPS, pH 6.7, 10 mM MgCl2, 5 mM DTT and CHAPS 0.03%. The reaction mixture is prepared containing 50 µM PIP2, kinase and varying concentration of inhibitors. Reactions are initiated by the addition of ATP containing 2.2 μCi [γ-^33P]ATP to a final concentration of 1000 μM. The final concentration of PI3K isoforms α, β, δ and γ in the assay were 1.3, 9.4, 2.9 and 10.8 nM, respectively. Reactions are incubated for 180 minutes and terminated by the addition of 100 μL of 1 M potassium phosphate pH 8.0, 30 mM EDTA quench buffer. A 100 μL aliquot of the reaction solution are then transferred to 96-well Millipore MultiScreen IP […] PVDF filter plate (The filter plate is prewetted with 200 μL 100% ethanol, distilled water, and 1 M potassium phosphate pH 8.0, respectively). The filter plate is aspirated on a Millipore Manifold under vacuum and washed with 18×200 μL wash buffer containing 1 M potassium phosphate pH 8.0 and 1 mM ATP. After drying by aspiration and blotting, the plate is air dried in an incubator at 37° C. overnight. Packard TopCount adapter (Millipore) is then attached to the plate followed with addition of 120 μL Microscint 20 scintillation cocktail (Perkin Elmer) in each well. After the plate sealing, the radioactivity of the product is determined by scintillation counting on Topcount (Perkin-Elmer). IC50 determination is performed by fitting the curve of percent control activity versus the log of the inhibitor concentration using the GraphPad Prism 3.0 software.

PI3Kδ, sequence (O00329 whole entry): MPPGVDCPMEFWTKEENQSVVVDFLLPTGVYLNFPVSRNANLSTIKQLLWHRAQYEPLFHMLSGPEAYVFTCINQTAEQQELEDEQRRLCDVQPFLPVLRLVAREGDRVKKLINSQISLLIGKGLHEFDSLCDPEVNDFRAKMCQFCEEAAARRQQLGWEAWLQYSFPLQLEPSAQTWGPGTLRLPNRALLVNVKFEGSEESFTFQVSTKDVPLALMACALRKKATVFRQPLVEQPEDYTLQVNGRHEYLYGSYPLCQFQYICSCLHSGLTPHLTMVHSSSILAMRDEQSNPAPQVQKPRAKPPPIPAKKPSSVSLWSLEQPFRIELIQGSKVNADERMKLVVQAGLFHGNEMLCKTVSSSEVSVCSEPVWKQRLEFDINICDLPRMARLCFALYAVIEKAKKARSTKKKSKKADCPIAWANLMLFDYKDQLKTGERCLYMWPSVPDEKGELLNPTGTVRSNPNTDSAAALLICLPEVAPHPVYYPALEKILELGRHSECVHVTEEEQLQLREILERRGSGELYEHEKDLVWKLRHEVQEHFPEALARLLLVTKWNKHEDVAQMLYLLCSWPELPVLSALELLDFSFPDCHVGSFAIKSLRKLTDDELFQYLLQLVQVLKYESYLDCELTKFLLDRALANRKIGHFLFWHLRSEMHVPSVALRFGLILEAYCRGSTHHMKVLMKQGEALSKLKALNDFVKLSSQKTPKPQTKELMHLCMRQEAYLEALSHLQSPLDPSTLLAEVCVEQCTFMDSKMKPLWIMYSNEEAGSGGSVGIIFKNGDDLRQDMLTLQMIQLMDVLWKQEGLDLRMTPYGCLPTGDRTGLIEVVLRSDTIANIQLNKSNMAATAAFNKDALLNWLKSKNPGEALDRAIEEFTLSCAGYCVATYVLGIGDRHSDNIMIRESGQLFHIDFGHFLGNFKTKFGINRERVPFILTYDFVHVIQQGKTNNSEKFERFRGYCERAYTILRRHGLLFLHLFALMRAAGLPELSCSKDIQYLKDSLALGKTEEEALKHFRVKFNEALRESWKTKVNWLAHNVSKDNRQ
PI3Kδ, sequence (P27986 whole entry partner): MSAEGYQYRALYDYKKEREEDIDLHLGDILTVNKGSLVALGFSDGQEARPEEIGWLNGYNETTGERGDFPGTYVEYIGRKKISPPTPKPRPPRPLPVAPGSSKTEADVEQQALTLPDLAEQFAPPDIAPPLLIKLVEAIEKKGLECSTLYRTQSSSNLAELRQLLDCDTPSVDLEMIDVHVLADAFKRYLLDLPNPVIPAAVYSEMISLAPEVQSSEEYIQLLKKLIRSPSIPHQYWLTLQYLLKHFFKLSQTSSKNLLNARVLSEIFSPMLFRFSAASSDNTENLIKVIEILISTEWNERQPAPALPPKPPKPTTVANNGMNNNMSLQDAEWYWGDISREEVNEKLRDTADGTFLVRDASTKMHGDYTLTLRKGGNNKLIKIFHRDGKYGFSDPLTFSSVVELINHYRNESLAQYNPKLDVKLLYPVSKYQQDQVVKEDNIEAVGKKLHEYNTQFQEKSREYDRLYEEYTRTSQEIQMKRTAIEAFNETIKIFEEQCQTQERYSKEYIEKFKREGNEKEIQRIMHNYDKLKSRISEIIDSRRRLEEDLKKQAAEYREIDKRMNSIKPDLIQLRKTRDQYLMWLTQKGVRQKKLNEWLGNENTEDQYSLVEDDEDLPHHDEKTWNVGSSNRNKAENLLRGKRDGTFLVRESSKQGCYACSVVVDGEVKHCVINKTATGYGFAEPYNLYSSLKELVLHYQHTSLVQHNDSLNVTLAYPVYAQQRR

In turn, `CCC(=O)N1CC(N2CCOc3c(C(C)n4nc(C)c5c(N)ncnc54)cc(Cl)c(C#N)c3C2)C1` (centres unmarked) [Example 89, 9-[1-(4-amino-3-methyl-1H-pyrazolo[3,4-d]pyrimidin-1-yl)ethyl]-7-chloro-4-(1-propionylazetidin-3-yl)-2,3,4,5-tetrahydro-1,4-benzoxazepine-6-carbonitrile] had an IC50 of no more than 100 nM. Compound `Cc1nn(C(C)c2cc(Cl)c(F)c3c2OCCN(C2CN(S(=O)(=O)N(C)C)C2)C3)c2ncnc(N)c12` (centres unmarked) [Example 74, 3-[9-[1-(4-amino-3-methyl-1H-pyrazolo[3,4-d]pyrimidin-1-yl)ethyl]-7-chloro-6-fluoro-2,3-dihydro-1,4-benzoxazepin-4(5H)-yl]-N,N-dimethylazetidine-1-sulfonamide] had an IC50 of no more than 100 nM. `CCC1CN(CCO)Cc2c(C#N)c(Cl)cc(C(C)n3nc(C)c4c(N)ncnc43)c2O1` (single isomer, unassigned) [Example 70, 9-[1-(4-Amino-3-methyl-1H-pyrazolo[3,4-d]pyrimidin-1-yl)ethyl]-7-chloro-2-ethyl-4-(2-hydroxyethyl)-2,3,4,5-tetrahydro-1,4-benzoxazepine-6-carbonitrile] yielded an IC50 of no more than 100 nM.

In the case of `CCOC(=O)N1CC(N2Cc3c(C#N)c(Cl)cc(C(C)n4nc(C)c5c(N)ncnc54)c3OC(C)C2)C1` (single isomer, unassigned) [Example 100, ethyl 3-[9-[1-(4-amino-3-methyl-1H-pyrazolo[3,4-d]pyrimidin-1-yl)ethyl]-7-chloro-6-cyano-2-methyl-2,3-dihydro-1,4-benzoxazepin-4(5H)-yl]azetidine-1-carboxylate], the 50% inhibitory concentration (IC50) is no more than 100 nM. Turning to `CCNC(=O)N1CC(N2Cc3c(C#N)c(Cl)cc(C(C)n4nc(C)c5c(N)ncnc54)c3OC(C)C2)C1` (single isomer, unassigned) [Example 97, 3-[9-[1-(4-amino-3-methyl-1H-pyrazolo[3,4-d]pyrimidin-1-yl)ethyl]-7-chloro-6-cyano-2-methyl-2,3-dihydro-1,4-benzoxazepin-4(5H)-yl]-N-ethylazetidine-1-carboxamide], the 50% inhibitory concentration (IC50) is no more than 100 nM.

`CC(=O)N1CC(N2Cc3c(F)c(Cl)cc(C(C)n4nc(C)c5c(N)ncnc54)c3OC(C)C2=O)C1` (single isomer, unassigned) [Example 72, 4-(1-Acetylazetidin-3-yl)-9-[1-(4-amino-3-methyl-1H-pyrazolo[3,4-d]pyrimidin-1-yl)ethyl]-7-chloro-6-fluoro-2-methyl-4,5-dihydro-1,4-benzoxazepin-3(2H)-one] came in with an IC50 of 100 to 500 nM. As for `CCNC(=O)N1CC(N2Cc3c(C#N)c(Cl)cc(C(C)n4nc(C)c5c(N)ncnc54)c3OC(C)C2)C1` (single isomer, unassigned) [Example 98, 3-[9-[1-(4-amino-3-methyl-1H-pyrazolo[3,4-d]pyrimidin-1-yl)ethyl]-7-chloro-6-cyano-2-methyl-2,3-dihydro-1,4-benzoxazepin-4(5H)-yl]-N-ethylazetidine-1-carboxamide], the IC50 is no more than 100 nM.

`CC(=O)N1CC(N2CCOc3c(C(C)n4nc(C)c5c(N)ncnc54)cc(Cl)c(C#N)c3C2)C1` (centres unmarked) [Example 46, 4-(1-Acetylazetidin-3-yl)-9-[1-(4-amino-3-methyl-1H-pyrazolo[3,4-d]pyrimidin-1-yl)ethyl]-7-chloro-2,3,4,5-tetrahydro-1,4-benzoxazepine-6-carbonitrile] gave an IC50 of no more than 100 nM. Under `CCC(=O)N1CC(N2Cc3c(F)c(Cl)cc(C(C)n4nc(C)c5c(N)ncnc54)c3OC(C)C2)C1` (centres unmarked) [Example 76, 1-{1-[7-chloro-6-fluoro-2-methyl-4-(1-propionylazetidin-3-yl)-2,3,4,5-tetrahydro-1,4-benzoxazepin-9-yl]ethyl}-3-methyl-1H-pyrazolo[3,4-d]pyrimidin-4-amine] stands no more than 100 nM. `Cc1nn(C(C)c2cc(Cl)c(C#N)c3c2OC(C)CN(C2CN(S(C)(=O)=O)C2)C3)c2ncnc(N)c12` (single isomer, unassigned) [Example 94, 9-[1-(4-amino-3-methyl-1H-pyrazolo[3,4-d]pyrimidin-1-yl)ethyl]-7-chloro-2-methyl-4-[1-(methylsulfonyl)azetidin-3-yl]-2,3,4,5-tetrahydro-1,4-benzoxazepine-6-carbonitrile] gave an IC50 of no more than 100 nM. With `Cc1nn(C(C)c2cc(Cl)c(C#N)c3c2OC(C)CN(C2CN(C(=O)NC(C)C)C2)C3)c2ncnc(N)c12` (single isomer, unassigned) [Example 102, 3-[9-[1-(4-amino-3-methyl-1H-pyrazolo[3,4-d]pyrimidin-1-yl)ethyl]-7-chloro-6-cyano-2-methyl-2,3-dihydro-1,4-benzoxazepin-4(5H)-yl]-N-isopropylazetidine-1-carboxamide] the figure was no more than 100 nM; with `CCC1CN(CCO)Cc2c(C#N)c(Cl)cc(C(C)n3nc(C)c4c(N)ncnc43)c2O1` (single isomer, unassigned) [Example 69, 9-[1-(4-Amino-3-methyl-1H-pyrazolo[3,4-d]pyrimidin-1-yl)ethyl]-7-chloro-2-ethyl-4-(2-hydroxyethyl)-2,3,4,5-tetrahydro-1,4-benzoxazepine-6-carbonitrile], no more than 100 nM. The compound `Cc1nn(C(C)c2cc(Cl)c(C#N)c3c2OC(C)CN(CC(C)(C)O)C3)c2ncnc(N)c12` (single isomer, unassigned) [Example 65, 9-[1-(4-Amino-3-methyl-1H-pyrazolo[3,4-d]pyrimidin-1-yl)ethyl]-7-chloro-4-(2-hydroxy-2-methylpropyl)-2-methyl-2,3,4,5-tetrahydro-1,4-benzoxazepine-6-carbonitrile] showed an IC50 of no more than 100 nM. As for `Cc1nn(C(C)c2cc(Cl)c(C#N)c3c2OCCN(CCO)C3)c2ncnc(N)c12` (centres unmarked) [Example 58, 9-[1-(4-Amino-3-methyl-1H-pyrazolo[3,4-d]pyrimidin-1-yl)ethyl]-7-chloro-4-(2-hydroxyethyl)-2,3,4,5-tetrahydro-1,4-benzoxazepine-6-carbonitrile], the IC50 is no more than 100 nM.

For `Cc1nn(C(C)c2cc(Cl)c(F)c3c2O[C@@H](C)CN(C2CC(C(=O)O)C2)C3)c2ncnc(N)c12` (some centres unmarked) [Example 41, 3-[9-[1-(4-Amino-3-methyl-1H-pyrazolo[3,4-d]pyrimidin-1-yl)ethyl]-7-chloro-6-fluoro-2-methyl-2,3-dihydro-1,4-benzoxazepin-4(5H)-yl]cyclobutanecarboxylic acid trifluoroacetate], the IC50 was no more than 100 nM. Take `Cc1nn(C(C)c2cc(Cl)c(C#N)c3c2OCCN(C2CN(CCO)C2)C3)c2ncnc(N)c12` (centres unmarked) [Example 47, 9-[1-(4-amino-3-methyl-1H-pyrazolo[3,4-d]pyrimidin-1-yl)ethyl]-7-chloro-4-[1-(2-hydroxyethyl)azetidin-3-yl]-2,3,4,5-tetrahydro-1,4-benzoxazepine-6-carbonitrile]: the 50% inhibitory concentration (IC50) was no more than 100 nM. In turn, `Cc1nn(C(C)c2cc(Cl)c(C#N)c3c2O[C@@H](C)CN(C2CN(CCO)C2)C3)c2ncnc(N)c12` (stereo partly drawn) [Example 56, (2S)-9-[1-(4-Amino-3-methyl-1H-pyrazolo[3,4-d]pyrimidin-1-yl)ethyl]-7-chloro-4-[1-(2-hydroxyethyl)azetidin-3-yl]-2-methyl-2,3,4,5-tetrahydro-1,4-benzoxazepine-6-carbonitrile] showed an IC50 of no more than 100 nM.
